The target in assay [1] is T1, Cyclin-dependent kinase 11A (Homo sapiens) (UniProt Q9UQ88).
T1 sequence (whole entry): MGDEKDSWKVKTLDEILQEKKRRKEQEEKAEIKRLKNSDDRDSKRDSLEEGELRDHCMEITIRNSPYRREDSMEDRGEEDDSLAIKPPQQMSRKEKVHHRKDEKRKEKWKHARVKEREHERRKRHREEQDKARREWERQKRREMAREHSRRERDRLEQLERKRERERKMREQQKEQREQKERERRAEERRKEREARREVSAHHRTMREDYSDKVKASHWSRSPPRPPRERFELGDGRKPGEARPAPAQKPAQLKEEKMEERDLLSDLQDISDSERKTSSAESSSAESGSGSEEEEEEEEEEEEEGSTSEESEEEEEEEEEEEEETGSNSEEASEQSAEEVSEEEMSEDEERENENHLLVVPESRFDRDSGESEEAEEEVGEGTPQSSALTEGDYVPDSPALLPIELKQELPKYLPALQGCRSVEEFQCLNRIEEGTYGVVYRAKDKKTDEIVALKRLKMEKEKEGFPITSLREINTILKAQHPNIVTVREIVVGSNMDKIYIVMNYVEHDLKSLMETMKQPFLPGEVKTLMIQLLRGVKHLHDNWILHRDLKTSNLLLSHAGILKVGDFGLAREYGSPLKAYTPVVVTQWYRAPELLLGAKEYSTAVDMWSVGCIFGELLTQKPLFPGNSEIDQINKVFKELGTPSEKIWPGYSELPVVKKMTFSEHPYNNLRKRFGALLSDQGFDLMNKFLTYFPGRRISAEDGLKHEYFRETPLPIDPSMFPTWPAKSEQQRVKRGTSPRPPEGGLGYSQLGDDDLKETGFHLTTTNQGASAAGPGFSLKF
The experiment in a line: Inhibition of CDC2L2 (unknown origin) assessed as residual activity at 1000 nM by KINOMEscan analysis relative to control.

Assay [2] addresses LIM domain kinase 2 (Homo sapiens) (UniProt P53671). As to the kind of experiment: Inhibition of LIMK2 (unknown origin) assessed as residual activity at 1000 nM by KINOMEscan analysis relative to control.
The test system of assay [3] is Mast/stem cell growth factor receptor Kit (Homo sapiens), P10721 [V559D,V654A]. The experiment in a line: Inhibition of KIT V559D/V654A mutant (unknown origin) assessed as residual activity at 1000 nM by KINOMEscan analysis relative to control.
Mast/stem cell growth factor receptor Kit (Homo sapiens), P10721 [V559D,V654A], sequence (P10721 whole entry V559D/V654A): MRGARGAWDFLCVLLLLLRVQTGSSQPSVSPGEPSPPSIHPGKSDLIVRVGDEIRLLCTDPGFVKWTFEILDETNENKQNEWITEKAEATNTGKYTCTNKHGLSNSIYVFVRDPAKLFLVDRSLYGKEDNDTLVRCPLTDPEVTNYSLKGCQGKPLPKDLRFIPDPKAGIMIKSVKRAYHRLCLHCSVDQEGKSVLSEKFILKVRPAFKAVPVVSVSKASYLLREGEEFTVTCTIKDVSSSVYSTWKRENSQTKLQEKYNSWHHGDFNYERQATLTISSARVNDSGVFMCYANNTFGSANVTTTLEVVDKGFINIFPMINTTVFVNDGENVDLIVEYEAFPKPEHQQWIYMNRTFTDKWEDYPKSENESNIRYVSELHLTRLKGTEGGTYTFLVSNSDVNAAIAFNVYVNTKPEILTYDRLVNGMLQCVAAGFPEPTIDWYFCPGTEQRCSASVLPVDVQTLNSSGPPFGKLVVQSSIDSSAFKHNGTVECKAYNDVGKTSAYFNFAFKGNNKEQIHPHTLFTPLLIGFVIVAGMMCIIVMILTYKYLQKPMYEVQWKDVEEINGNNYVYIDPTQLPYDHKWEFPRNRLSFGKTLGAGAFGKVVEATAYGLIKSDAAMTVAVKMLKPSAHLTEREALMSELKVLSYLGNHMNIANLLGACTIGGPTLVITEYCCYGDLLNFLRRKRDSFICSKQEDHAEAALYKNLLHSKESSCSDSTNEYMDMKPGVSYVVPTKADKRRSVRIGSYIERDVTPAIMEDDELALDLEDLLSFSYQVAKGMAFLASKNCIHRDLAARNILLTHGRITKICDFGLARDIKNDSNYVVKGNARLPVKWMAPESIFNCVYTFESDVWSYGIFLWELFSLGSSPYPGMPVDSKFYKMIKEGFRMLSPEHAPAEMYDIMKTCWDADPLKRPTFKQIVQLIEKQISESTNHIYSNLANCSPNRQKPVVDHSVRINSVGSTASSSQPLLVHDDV
In assay [4] the target is Leukocyte tyrosine kinase receptor (Homo sapiens) (UniProt P29376). The experiment in a line: Inhibition of LTK (unknown origin) assessed as residual activity at 1000 nM by KINOMEscan analysis relative to control.
Leukocyte tyrosine kinase receptor (Homo sapiens), sequence (P29376 whole entry): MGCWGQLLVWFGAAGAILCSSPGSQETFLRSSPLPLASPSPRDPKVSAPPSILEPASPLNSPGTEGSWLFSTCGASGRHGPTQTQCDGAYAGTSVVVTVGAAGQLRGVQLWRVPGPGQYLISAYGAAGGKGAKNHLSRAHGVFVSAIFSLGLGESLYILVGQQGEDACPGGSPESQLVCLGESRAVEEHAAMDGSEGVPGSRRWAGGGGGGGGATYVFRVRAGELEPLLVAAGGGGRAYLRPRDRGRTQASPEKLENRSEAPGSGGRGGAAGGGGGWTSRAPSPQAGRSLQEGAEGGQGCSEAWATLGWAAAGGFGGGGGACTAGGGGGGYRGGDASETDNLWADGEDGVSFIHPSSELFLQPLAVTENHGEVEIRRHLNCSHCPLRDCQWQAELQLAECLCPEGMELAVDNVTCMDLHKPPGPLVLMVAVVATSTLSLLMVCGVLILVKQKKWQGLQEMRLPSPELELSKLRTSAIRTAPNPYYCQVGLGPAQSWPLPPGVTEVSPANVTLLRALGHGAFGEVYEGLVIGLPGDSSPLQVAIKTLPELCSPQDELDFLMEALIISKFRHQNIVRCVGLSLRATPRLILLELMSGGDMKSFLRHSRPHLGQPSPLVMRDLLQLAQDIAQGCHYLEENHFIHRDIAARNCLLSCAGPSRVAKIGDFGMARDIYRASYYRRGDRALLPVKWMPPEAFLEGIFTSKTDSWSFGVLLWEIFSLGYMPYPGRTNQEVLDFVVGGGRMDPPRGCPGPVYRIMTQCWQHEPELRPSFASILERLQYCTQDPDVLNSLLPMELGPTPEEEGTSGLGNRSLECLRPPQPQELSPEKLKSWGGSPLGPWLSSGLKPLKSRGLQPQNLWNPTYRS
For assay [5], the target named is Bone morphogenetic protein receptor type-1B (Homo sapiens) (UniProt O00238). The experiment in a line: Inhibition of BMPR1B (unknown origin) assessed as residual activity at 1000 nM by KINOMEscan analysis relative to control.
Bone morphogenetic protein receptor type-1B (Homo sapiens), sequence (O00238 whole entry): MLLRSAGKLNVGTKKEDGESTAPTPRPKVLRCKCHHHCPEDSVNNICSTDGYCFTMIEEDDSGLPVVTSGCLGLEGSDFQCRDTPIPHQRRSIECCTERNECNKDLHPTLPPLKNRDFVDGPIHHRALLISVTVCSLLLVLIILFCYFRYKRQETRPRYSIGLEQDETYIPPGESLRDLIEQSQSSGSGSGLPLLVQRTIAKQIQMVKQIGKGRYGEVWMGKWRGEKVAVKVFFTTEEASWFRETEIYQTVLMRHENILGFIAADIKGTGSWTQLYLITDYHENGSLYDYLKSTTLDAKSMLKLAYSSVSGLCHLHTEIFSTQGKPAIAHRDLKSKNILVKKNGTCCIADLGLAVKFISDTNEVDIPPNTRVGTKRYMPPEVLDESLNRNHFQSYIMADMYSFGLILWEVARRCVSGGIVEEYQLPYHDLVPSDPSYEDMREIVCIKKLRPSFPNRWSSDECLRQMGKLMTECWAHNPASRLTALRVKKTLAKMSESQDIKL
Assay [6] addresses T2, Rhodopsin kinase GRK1 (Homo sapiens) (UniProt Q15835).
T2 sequence (whole entry): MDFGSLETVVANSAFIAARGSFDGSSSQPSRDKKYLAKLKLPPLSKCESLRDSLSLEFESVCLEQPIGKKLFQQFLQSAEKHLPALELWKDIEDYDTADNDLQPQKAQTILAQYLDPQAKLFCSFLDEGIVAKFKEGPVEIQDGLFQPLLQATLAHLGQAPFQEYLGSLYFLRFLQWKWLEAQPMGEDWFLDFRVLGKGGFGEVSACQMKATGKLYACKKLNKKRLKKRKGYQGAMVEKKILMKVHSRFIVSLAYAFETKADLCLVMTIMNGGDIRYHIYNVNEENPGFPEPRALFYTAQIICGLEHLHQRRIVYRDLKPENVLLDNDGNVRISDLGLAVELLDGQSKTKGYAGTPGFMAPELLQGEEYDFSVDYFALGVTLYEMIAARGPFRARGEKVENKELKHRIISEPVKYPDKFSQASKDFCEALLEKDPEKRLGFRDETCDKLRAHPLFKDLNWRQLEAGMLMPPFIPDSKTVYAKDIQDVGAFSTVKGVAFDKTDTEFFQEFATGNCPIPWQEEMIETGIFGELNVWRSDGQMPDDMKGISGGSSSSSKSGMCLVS
As to the kind of experiment: Inhibition of GRK1 (unknown origin) assessed as residual activity at 1000 nM by KINOMEscan analysis relative to control.

Assay [7] addresses Cyclin-dependent kinase 13 (Homo sapiens) (UniProt Q14004). As to the kind of experiment: Inhibition of CDC2L5 (unknown origin) assessed as residual activity at 1000 nM by KINOMEscan analysis relative to control.
Assay [8] concerns the target Eukaryotic translation initiation factor 2-alpha kinase 1 (Homo sapiens) (UniProt Q9BQI3). As to the kind of experiment: Inhibition of EIF2AK1 (unknown origin) assessed as residual activity at 1000 nM by KINOMEscan analysis relative to control.
For assay [9], the target named is Serine/threonine-protein kinase 16 (Homo sapiens) (UniProt O75716). The experiment in a line: Inhibition of STK16 (unknown origin) assessed as residual activity at 1000 nM by KINOMEscan analysis relative to control.
Serine/threonine-protein kinase 16 (Homo sapiens), sequence (O75716 whole entry): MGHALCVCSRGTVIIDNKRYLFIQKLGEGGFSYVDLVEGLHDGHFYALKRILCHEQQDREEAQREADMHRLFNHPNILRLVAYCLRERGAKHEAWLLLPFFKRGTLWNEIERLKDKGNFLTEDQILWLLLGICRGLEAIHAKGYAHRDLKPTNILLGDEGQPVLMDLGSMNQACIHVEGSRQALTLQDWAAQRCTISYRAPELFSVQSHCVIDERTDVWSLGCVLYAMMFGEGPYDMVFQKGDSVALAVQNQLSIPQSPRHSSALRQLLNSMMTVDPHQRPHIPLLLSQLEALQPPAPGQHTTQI
Assay [10] deals with T3, Serine/threonine-protein kinase DCLK2 (Homo sapiens) (UniProt Q8N568).
T3 sequence (whole entry): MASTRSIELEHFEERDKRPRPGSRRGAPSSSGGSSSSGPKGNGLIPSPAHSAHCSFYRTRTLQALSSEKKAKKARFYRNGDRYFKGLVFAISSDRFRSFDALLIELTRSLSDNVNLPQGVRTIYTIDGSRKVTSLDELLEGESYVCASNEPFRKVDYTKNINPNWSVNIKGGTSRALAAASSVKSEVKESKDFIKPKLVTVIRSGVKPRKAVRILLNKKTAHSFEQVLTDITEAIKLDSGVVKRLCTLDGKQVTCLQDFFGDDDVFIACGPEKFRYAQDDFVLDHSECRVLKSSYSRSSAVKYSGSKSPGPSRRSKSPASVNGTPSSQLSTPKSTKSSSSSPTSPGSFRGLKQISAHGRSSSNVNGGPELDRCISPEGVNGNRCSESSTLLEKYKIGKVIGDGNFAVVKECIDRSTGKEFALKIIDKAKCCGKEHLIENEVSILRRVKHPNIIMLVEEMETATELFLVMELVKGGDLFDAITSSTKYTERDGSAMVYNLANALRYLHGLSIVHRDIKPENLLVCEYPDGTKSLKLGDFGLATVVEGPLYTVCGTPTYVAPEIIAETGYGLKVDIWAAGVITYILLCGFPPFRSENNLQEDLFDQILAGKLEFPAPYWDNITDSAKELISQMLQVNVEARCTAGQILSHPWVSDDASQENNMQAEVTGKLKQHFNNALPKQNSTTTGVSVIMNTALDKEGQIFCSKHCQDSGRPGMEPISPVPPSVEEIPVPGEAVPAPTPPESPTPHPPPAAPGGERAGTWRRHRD
As to the kind of experiment: Inhibition of DCAMKL2 (unknown origin) assessed as residual activity at 1000 nM by KINOMEscan analysis relative to control.

SMILES strings stand for the structures.

Cyclin-dependent kinase 13 (Homo sapiens), sequence (Q14004 whole entry, looked up): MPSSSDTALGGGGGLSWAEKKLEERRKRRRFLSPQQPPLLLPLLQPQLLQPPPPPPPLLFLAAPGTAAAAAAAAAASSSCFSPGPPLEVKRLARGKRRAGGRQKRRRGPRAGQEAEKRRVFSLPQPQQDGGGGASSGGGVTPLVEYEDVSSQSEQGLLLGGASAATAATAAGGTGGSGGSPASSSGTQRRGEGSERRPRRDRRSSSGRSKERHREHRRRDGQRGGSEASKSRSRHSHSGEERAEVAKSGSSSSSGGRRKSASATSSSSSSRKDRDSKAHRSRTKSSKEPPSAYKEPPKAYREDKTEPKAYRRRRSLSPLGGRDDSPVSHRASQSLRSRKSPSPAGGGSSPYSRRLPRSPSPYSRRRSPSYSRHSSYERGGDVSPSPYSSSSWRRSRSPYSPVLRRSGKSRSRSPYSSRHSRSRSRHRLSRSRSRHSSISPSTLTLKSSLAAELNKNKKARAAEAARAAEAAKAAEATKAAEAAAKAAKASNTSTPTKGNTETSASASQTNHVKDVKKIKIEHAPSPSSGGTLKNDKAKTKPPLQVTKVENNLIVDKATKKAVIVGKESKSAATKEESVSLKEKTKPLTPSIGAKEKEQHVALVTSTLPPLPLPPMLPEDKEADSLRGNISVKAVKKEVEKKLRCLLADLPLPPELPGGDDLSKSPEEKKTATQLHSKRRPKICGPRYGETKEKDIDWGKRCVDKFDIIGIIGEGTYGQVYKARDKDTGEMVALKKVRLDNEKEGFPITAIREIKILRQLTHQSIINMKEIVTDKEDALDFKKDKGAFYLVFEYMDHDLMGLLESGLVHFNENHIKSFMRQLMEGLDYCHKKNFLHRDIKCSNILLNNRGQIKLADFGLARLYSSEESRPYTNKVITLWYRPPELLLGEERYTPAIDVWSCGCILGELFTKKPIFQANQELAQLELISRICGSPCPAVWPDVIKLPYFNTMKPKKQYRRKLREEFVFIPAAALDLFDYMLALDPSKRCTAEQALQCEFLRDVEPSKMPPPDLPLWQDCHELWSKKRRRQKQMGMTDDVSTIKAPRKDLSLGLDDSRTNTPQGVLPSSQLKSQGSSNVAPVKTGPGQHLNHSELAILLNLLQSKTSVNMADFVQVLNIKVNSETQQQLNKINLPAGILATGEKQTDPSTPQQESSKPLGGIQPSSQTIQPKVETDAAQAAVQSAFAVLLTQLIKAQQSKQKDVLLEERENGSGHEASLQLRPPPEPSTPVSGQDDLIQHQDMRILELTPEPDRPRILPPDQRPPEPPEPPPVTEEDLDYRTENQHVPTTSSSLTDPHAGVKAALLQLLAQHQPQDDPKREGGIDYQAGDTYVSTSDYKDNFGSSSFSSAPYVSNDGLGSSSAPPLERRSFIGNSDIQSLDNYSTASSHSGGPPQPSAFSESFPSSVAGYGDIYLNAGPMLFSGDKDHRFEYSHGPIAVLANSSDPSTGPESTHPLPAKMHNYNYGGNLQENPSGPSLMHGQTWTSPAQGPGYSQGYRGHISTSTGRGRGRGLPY
Eukaryotic translation initiation factor 2-alpha kinase 1 (Homo sapiens), sequence (Q9BQI3 whole entry): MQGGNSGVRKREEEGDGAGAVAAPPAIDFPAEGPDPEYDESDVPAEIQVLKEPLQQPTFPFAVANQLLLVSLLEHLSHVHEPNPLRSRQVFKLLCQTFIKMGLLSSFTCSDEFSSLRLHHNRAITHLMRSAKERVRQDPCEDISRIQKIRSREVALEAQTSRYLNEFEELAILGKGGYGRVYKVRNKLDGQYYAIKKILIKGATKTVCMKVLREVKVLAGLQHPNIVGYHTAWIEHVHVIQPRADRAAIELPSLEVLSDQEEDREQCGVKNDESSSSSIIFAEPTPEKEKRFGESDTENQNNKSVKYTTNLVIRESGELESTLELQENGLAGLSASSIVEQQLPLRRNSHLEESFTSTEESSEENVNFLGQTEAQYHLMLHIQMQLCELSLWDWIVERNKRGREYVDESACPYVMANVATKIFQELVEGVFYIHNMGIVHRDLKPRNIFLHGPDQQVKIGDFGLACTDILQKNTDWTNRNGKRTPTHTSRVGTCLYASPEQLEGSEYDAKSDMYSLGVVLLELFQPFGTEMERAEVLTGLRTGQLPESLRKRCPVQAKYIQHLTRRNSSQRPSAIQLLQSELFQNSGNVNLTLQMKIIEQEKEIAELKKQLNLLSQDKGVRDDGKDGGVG

As for `COc1cc2nc(C)nc(N[C@H](C)c3cccc(-c4cn[nH]c4)c3)c2cc1OC`, the Activity in assay [1] is 100%; in [2], 100%; in assay [3], 92%; in assay [4] it was 100%; in assay [5], 98%; in assay [6], 55%. For the same compound, the Activity in [7] amounted to 87%; in [8] it was 100%; in assay [9], 74%; in assay [10], 98%.
For `COc1cc2ncnc(N[C@H](C)c3cccc4ccccc34)c2cc1OC`, the Activity in assay [1] amounted to 99%; in assay [2], 92%; in [3], 100%; in assay [4] it was 97%; in assay [5], 94%; in [6], 94%. In addition, the Activity in [7] is 97%; in assay [8] it was 88%; in assay [9] it was 93%; in assay [10], 100%.

Values taken from ChEMBL document CHEMBL5678818, “Discovery of potent SOS1 inhibitors that block RAS activation via disruption of the RAS-SOS1 interaction” (Proc Natl Acad Sci U S A, 2019).
